From US20230114674A1, “ISOINDOLINE DERIVATIVE, AND PHARMACEUTICAL COMPOSITION AND USE THEREOF” (KANGPU BIOPHARMACEUTICALS, LTD., priority 2020, published 2023) come the findings set out here.

Test [1] has as its system MM.1S myeloma cells. The experiment in a line: Cell proliferation inhibition test by CTG (CellTiter-Glo) assay. To be noted: Homo sapiens, MM1.S, 120 hours drug treatment, 4,000 cells/well, 384-well plate, read-out: MM.2S IC50. It is filed as cell-based. The protocol: Experimental Method for Cell Proliferation Inhibition Test by CTG Assay:
The proliferation inhibitory activity of the compounds in the MM.1S myeloma cell model was determined by CellTiter-Glo (CTG) Luminescent Cell Viability Assay (Promega). MM.1S cells (ATCC, Cat #CRL-2974) at exponential phase were resuspended in RPMI-1640 (Gibco, Cat #11875-093)+10% FBS+1% penicillin/streptomycin+2 mM Glutamax medium and counted using an automated cell counter (ViCellXR). According to the optimized cell plating density in the pre-experiments, 40 μl of cell suspension at a density of 100,000 cells/ml was plated in the corresponding wells of a 384-well plate (4,000 cells/well) to ensure that cells in the control group were at linear growth phase within the five-day experimental period. The plated 384-well plate was cultured in a 37° C., 5% CO2 incubator for 24 hours. On the day of administration, each compound was formulated into 10 mM stock solution with DMSO (Sigma, Cat #276855-1L) and the stock solution was further diluted with DMSO to 20 μM and 20 nM working solutions. Drug treatment of MM.1S cells started at a concentration of up to 100 nM and the drug was serial diluted 4-fold with 10 points, with three replicate wells. Nanoliter volumes of compound solutions were added to the corresponding wells of the 384-well plate according to the needed concentration in a non-contact spraying manner by an HPD300 microscale automated dispenser (Tecan). The final concentration of DMSO was 0.5%. After drug addition, the 384-well plate was cultured in a 37° C., 5% CO2 incubator for 120 hours. After five days of drug treatment, 25 μl of CTG reagent (Promega, Cat #G7573) was added to each well, and the plate was shaken on a plate shaker for 10 minutes to ensure that the cells were fully lysed, and then left to stand at room temperature for 10 minutes to ensure a sufficient reaction of CTG with the substrate and the generation of a stable luminescent signal. The signal is proportional to the amount of ATP in the cell lysate, i.e., the number of metabolically active cells. Chemiluminescence of the cells in the plate was detected by an EnSpire instrument. The reading of the cells at Day 0 was used as a control for cells at growth starting point and the reading of cells with 0.5% DMSO at Day 5 was used as a control for cells under growth. Cell proliferation inhibition curve was plotted using XLFit software and the IC50 value was calculated. Experiment results can be seen in Table 2.
(In ATP-based viability assays light output follows the ATP content of the culture.)

Test [2] relates to MM.1S myeloma cells. The experiment in a line: Cell proliferation inhibition test by MTS assay. It is filed as cell-based. To be noted: Homo sapiens, MM1.S, 72 hours drug treatment, 15,000 cells/well, 96-well plate. The method, then:
Experimental Method for Cell Proliferation Inhibition Test by MTS Assay:
Proliferating MM.1S myeloma cells (ATCC, Cat #CRL-2974) were resuspended in RPMI-640 medium (Gibco, Cat #A10491-01) and counted using an automated cell counter. The cell suspension was diluted to the needed density and 100 μl (15,000 cells) of the cell suspension was plated per well in a 96-well plate. The plate was cultured in a 37° C., 5% CO2 incubator for 24 hours. On the day of administration, each compound was formulated into 20 mM stock solution with DMSO (Sigma, Cat #D2650), diluted with a medium to the needed concentration, and then added to the corresponding wells for the cell proliferation inhibition test with a drug of 4-fold serial dilution with 10 points. The final concentration of DMSO was 0.5%. After drug addition, the 96-well plate was cultured in a 37° C., 5% CO2 incubator for 72 hours. Then, 20 μl of MTS (Promega, Cat #G3581) was added to each well and the plate was cultured for 2 hours in a 37° C., 5% CO2 incubator, and then the absorbance at 490 nm of each well was recorded using an Ensight instrument. The reading of the cells at Day 0 was used as a negative control and the reading of cells with 0.5% DMSO at Day-3 was used as a positive control. Cell proliferation inhibition curve was plotted using GraphPad Prism 5 software and the IC50 value was calculated. Experiment results can be seen in Table 1.
For orientation: Tetrazolium dyes change colour on reduction, which living cells bring about.

Turning to `CCOc1cc(N2CCN(Cc3ccc(COc4cccc5c4CN([C@H]4CCC(=O)NC4=O)C5=O)cc3F)CC2)ccc1C#N` [CM-46], the IC50 – broadly, the concentration that gives 50% inhibition – in the test on MM.1S myeloma cells [1] was found to be 0.0687 nM.

For the compound `N#Cc1ccc(N2CCN(Cc3ccc(COc4cccc5c4CN([C@H]4CCC(=O)NC4=O)C5=O)c(F)c3)CC2)c(F)c1C(F)(F)F` [CM-47], in the test on MM.1S myeloma cells [1], the half-inhibitory concentration (IC50) worked out at 0.135 nM.

For `COc1c(C#N)ccc(N2CCN(Cc3ccc(COc4cccc5c4CN([C@H]4CCC(=O)NC4=O)C5=O)c(F)c3)CC2)c1F` [CM-49], the IC50 with MM.1S myeloma cells [1] stood at 0.0606 nM.

As for `Nc1cccc2c1CN(C1CCC(=O)NC1=O)C2=O` (stereo not shown) [Control 1, reference compound], the half-maximal inhibitory concentration (IC50) with MM.1S myeloma cells [2] was 23.1 nM; in the test with MM.1S myeloma cells [1] it was 119 nM.

As to `CNC(=O)c1ccc(N2CCN(Cc3ccc(COc4cccc5c4CN([C@H]4CCC(=O)NC4=O)C5=O)cc3F)CC2)cc1F` [CM-45], the IC50 in the test with MM.1S myeloma cells [1] is 0.0938 nM.

For the compound `N#Cc1ccc(N2CCN(Cc3ccc(COc4cccc5c4CN([C@H]4CCC(=O)NC4=O)C5=O)c(F)c3)CC2)c(F)c1Cl` [CM-48], the IC50 with MM.1S myeloma cells [1] was 0.0365 nM.
